{"source": "patent US20100112617A1", "about": "“Evaluating RTK Target Drugs” (Apocell, Inc, priority 2007, published 2010)", "assay_type_in_all_cases": "cell-based", "key": {"[1]": {"target": "T1, EGFR (Homo sapiens, UniProt P00533)", "T1 construct": "host or cells: HT-29 colon cancer cells", "T1 sequence (P00533 25-1210)": "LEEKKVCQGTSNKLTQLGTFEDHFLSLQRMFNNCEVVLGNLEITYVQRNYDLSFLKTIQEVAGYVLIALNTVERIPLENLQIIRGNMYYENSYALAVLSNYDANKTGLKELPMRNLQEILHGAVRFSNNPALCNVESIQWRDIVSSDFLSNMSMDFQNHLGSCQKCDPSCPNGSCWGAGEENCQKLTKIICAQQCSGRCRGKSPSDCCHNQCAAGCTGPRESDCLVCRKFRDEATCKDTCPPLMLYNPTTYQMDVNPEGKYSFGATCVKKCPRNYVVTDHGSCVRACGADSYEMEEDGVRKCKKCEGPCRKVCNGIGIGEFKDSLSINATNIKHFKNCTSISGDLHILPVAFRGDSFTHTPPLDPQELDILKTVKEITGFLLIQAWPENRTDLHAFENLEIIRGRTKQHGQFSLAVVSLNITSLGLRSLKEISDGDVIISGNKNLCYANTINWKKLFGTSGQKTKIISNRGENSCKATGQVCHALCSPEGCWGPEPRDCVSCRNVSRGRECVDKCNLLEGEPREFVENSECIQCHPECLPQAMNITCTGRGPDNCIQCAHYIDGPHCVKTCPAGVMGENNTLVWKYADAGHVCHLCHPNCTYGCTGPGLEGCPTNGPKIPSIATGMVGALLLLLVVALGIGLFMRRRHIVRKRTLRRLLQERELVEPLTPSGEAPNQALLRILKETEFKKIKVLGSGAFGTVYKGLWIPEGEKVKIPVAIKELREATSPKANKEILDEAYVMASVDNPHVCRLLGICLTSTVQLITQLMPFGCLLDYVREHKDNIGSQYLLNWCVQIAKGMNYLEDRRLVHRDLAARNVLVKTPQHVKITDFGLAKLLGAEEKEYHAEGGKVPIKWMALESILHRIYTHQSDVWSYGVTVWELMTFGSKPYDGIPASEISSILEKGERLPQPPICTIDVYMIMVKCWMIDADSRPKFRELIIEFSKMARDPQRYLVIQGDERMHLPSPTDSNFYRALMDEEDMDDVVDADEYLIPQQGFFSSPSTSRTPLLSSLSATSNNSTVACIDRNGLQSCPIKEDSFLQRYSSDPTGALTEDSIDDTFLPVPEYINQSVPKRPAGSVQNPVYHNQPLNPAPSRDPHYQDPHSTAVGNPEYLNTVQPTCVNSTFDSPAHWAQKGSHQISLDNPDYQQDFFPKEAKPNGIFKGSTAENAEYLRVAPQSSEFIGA", "assay": "pEGFR and tEGFR levels in EGF-stimulated HT-29 colon cancer cells by laser scanning cytometry", "conditions": "HT-29 cells; for pEGFR fold change in level / pEGFR/tEGFR fold change in level / tEGFR fold change in level: 0% FCS, EGF 100 ng/ml for 5 min", "description": "We sought to test RTK response to RTKI's and thus measured both phospho-RTK and total RTK using a known RTKI challenge reagent. AEE788 (NOVARTIS®) is an oral multiple-receptor tyrosine kinase inhibitor of EGFR, human epidermal growth factor receptor 2 (HER-2), and vascular endothelial growth factor receptor (VEGFR). Thus, we measured EGFR response to AEE788 using antibody quantitation of the two parameters. HT-29 colon cancer cells were treated with increasing doses of AEE788, (0, 4, 20, 100, and 1000 nM) for 4 hours in serum-free media followed by EGF stimulation at 100 ng/ml for 5 minutes. Cells were then fixed and stained with anti-phospho-EGFR (P-EGFR-Y1173) antibody followed by a secondary antibody conjugated with a fluorescent probe. The mean fluorescence index (MFI) of pEGFR was quantified by laser scanning cytometry (LSC) […] and the results are shown in Table 2."}, "[2]": {"target": "T2, PDGFR-β (Homo sapiens, UniProt P09619)", "T2 sequence (P09619 33-1106)": "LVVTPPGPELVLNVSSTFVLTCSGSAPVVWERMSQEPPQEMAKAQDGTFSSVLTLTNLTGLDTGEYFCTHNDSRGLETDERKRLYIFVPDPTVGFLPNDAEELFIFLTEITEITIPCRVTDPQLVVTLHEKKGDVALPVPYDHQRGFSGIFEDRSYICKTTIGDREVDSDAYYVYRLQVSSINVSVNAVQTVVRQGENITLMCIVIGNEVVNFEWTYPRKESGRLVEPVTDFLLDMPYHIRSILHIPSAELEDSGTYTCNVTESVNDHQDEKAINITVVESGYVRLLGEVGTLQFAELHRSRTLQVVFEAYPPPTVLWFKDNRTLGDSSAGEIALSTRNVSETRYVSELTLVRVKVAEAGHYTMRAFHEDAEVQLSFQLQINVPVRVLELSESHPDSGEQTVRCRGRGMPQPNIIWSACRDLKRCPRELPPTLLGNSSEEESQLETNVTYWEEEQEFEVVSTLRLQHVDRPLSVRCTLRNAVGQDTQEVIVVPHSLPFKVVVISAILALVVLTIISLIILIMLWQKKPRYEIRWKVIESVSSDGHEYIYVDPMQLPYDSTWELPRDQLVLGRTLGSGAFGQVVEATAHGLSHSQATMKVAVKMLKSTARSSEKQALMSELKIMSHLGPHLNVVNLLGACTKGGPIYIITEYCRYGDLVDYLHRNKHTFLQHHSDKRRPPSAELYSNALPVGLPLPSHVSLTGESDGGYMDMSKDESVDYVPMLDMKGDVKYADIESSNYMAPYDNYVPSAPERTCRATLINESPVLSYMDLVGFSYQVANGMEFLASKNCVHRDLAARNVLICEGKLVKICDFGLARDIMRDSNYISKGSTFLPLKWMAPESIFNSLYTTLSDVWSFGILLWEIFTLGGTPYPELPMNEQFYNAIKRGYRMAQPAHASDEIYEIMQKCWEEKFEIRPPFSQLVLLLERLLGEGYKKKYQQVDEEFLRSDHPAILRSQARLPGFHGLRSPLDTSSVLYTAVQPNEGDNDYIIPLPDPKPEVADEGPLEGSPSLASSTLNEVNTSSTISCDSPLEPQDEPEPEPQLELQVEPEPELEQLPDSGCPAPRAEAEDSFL", "assay": "pPDGFR-β/tPDGFR-β ratio in PDGF-stimulated HUVEC cells", "parameters": "endogenous in cells; host or cells: HUVEC", "conditions": "for HUVEC pPDGFR-β/tPDGFR-β fold ratio change: PDGF 50 ng/ml 10 min", "source_text": "(§1) Thus, we repeated the experiment using additional RTKs and RTKIs. We used a known RTKI challenge reagent SU11248, which blocks phosphorylation of several kinases, including VEGFR2 (KDR), stem cell tyrosine kinase receptor (KIT), platelet-derived growth factor receptor (PDGFR), and fms-related tyrosine kinase 3 (FLT3)."}, "[3]": {"target": "T2, PDGFR-β", "assay": "pPDGFR-β/tPDGFR-β ratio in PDGF-stimulated GIST cells", "parameters": "endogenous in cells; host or cells: GIST (gastrointestinal stromal tumor) cells", "conditions": "for GIST pPDGFR-β/tPDGFR-β fold ratio change: PDGF 50 ng/ml 10 min", "source_text": "as §1"}}, "data": [{"molecule": "CCN1CCN(Cc2ccc(-c3cc4c(N[C@H](C)c5ccccc5)ncnc4[nH]3)cc2)CC1", "note": "[AEE788]", "values": [{"measurement": "pEGFR fold change in level", "setting": "[1]; 4 nM for 4 h", "value": 1.36, "unit": "fold"}, {"measurement": "pEGFR/tEGFR fold change in level", "setting": "[1]; 4 nM for 4 h", "value": 0.65, "unit": "fold"}, {"measurement": "tEGFR fold change in level", "setting": "[1]; 4 nM for 4 h", "value": 2.11, "unit": "fold"}, {"measurement": "pEGFR fold change in level", "setting": "[1]; 20 nM for 4 h", "value": 0.97, "unit": "fold"}, {"measurement": "pEGFR/tEGFR fold change in level", "setting": "[1]; 20 nM for 4 h", "value": 0.21, "unit": "fold"}, {"measurement": "tEGFR fold change in level", "setting": "[1]; 20 nM for 4 h", "value": 4.61, "unit": "fold"}, {"measurement": "pEGFR fold change in level", "setting": "[1]; 100 nM for 4 h", "value": 0.70, "unit": "fold"}, {"measurement": "pEGFR/tEGFR fold change in level", "setting": "[1]; 100 nM for 4 h", "value": 0.16, "unit": "fold"}, {"measurement": "tEGFR fold change in level", "setting": "[1]; 100 nM for 4 h", "value": 4.37, "unit": "fold"}, {"measurement": "pEGFR fold change in level", "setting": "[1]; 1000 nM for 4 h", "value": 0.52, "unit": "fold"}, {"measurement": "pEGFR/tEGFR fold change in level", "setting": "[1]; 1000 nM for 4 h", "value": 0.15, "unit": "fold"}, {"measurement": "tEGFR fold change in level", "setting": "[1]; 1000 nM for 4 h", "value": 3.53, "unit": "fold"}, {"measurement": "EGF-induced phosphorylation of EGFR (pEGFR), in words", "setting": "[1]; 4-1000 nM", "value": "inhibited EGF-induced phosphorylation of its receptor (pEGFR) in a dose-dependent manner"}, {"measurement": "total EGFR levels, in words", "setting": "[1]; 4-1000 nM", "value": "up-regulated total EGFR levels"}]}, {"molecule": "CCN(CC)CCNC(=O)c1c(C)[nH]c(/C=C2\\C(=O)Nc3ccc(F)cc32)c1C", "note": "[SU11248]", "values": [{"measurement": "pPDGFR-β/tPDGFR-β ratio, in words", "setting": "[2]", "value": "decreased in a dose-dependent manner"}, {"measurement": "HUVEC pPDGFR-β/tPDGFR-β fold ratio change", "setting": "[2]; 0.01 μM", "value": "2.42 ± 0.36", "unit": "fold"}, {"measurement": "HUVEC pPDGFR-β/tPDGFR-β fold ratio change", "setting": "[2]; 0.1 μM", "value": "1.48 ± 0.15", "unit": "fold"}, {"measurement": "HUVEC pPDGFR-β/tPDGFR-β fold ratio change", "setting": "[2]; 1 μM", "value": "1.40 ± 0.23", "unit": "fold"}, {"measurement": "pPDGFR-β/tPDGFR-β ratio, in words", "setting": "[3]", "value": "decreased in a dose-dependent manner"}, {"measurement": "GIST pPDGFR-β/tPDGFR-β fold ratio change", "setting": "[3]; 0.01 μM", "value": "0.97 ± 0.05", "unit": "fold"}, {"measurement": "GIST pPDGFR-β/tPDGFR-β fold ratio change", "setting": "[3]; 0.1 μM", "value": "0.00 ± 0.59", "unit": "fold"}, {"measurement": "GIST pPDGFR-β/tPDGFR-β fold ratio change", "setting": "[3]; 1 μM", "value": "0.00 ± 0.08", "unit": "fold"}]}]}
